Measured values: article PMC9154192 (PLoS Biology, 2022)
In brackets after ≈: the same amount, converted by molar mass. Several values for one entry are separate records, joined by “and”; a condition that tells them apart may be missing. Equal entries are not always repeated.

Experiments:
[1] = test system: XDR M. tuberculosis (KMRC 00203–00197); format: cell-based, Mycobacterium tuberculosis
M. conceptionense = experiment: microbe, parasite or virus in culture; format: cell-based, Mycobacterium conceptionense; details: Mycolicibacterium senegalense
M. kansasii = experiment: microbe, parasite or virus in culture; format: cell-based; details: Mycobacterium kansasii
intestinal microbiome = experiment: Gut microbiome, 16s rRNA gene-based metagenomics analysis of feces; format: in vivo, BALB/c mice; details: mouse, in vivo
Experimental: Six-week-old BALB/c female mice were used for this study (6 mice for each group). Each drug was administered orally at 30 mg/kg once daily for 7 days. Stool was collected, and 16 rRNA gene-based metagenomics analysis was performed. Corn oil was used as the vehicle. The drug-free group received corn oil only. This animal experiment was conducted with the approval of the IACUC of the Soonchunhyang University (approval number: SCH21-0011). Microbiome analysis of collected feces was carried out as previously described with some modifications. Total DNA was extracted from the stool using the QIAamp DNA stool mini kit (Qiagen, Germany) after mechanical disruption using lysing matrix B tubes (MP Biomedicals, USA). V4 region of 16S RNA gene was amplified from extracted DNA with the following primers: forward primer ([…]) and reverse primer ([…]). PCR was performed using the Kappa HiFi hot start kit (KAPA Biosystems, USA) for 16s gene amplification and library preparation. A dsDNA HS assay kit and Qubit 4 fluorimeter (Invitrogen, USA) were used for DNA quantification. After each step, quality was checked using Agilent High Sensitivity DNA Kit and Agilent Bioanalyzer 2100 (Agilent Technologies, USA). Clean-up was performed using AMPure XP beads (Beckman Coulter, UK). The metagenomic library was prepared using a Nextera XT DNA Library Prep Kit (Illumina, USA) and loaded into an iSeq-100 reagent cartridge (Illumina, USA) together with a PhiX Control library (Illumina, USA). A 300-bp paired-end sequencing was performed on an iSeq-100 platform (Illumina, USA). Sequencing data were analyzed using the EzBioCloud server (Chunlab, Korea).

M. aubagnense = experiment: microbe, parasite or virus in culture; format: cell-based, Mycobacterium aubagnense; details: Mycolicibacterium aubagnense
M. gilvum = experiment: microbe, parasite or virus in culture; format: cell-based, Mycobacterium gilvum; details: Mycolicibacterium gilvum
M. kyorinense = experiment: microbe, parasite or virus in culture; format: cell-based; details: Mycobacterium kyorinense
M. peregrinum = experiment: microbe, parasite or virus in culture; format: cell-based, Mycobacterium peregrinum; details: Mycolicibacterium peregrinum
M. heraklionease = experiment: microbe, parasite or virus in culture; format: cell-based; details: Mycobacterium
M. marinum = experiment: microbe, parasite or virus in culture; format: cell-based; details: Mycobacterium marinum
M. bovis = experiment: microbe, parasite or virus in culture; format: cell-based; details: Mycobacterium tuberculosis variant bovis
M. massiliense = experiment: microbe, parasite or virus in culture; format: cell-based, Mycobacterium massiliense; details: Mycobacteroides abscessus
M. marseiliense = experiment: microbe, parasite or virus in culture; format: cell-based; details: Mycobacterium
M. fortuitum = experiment: microbe, parasite or virus in culture; format: cell-based, Mycobacterium fortuitum; details: Mycolicibacterium fortuitum
in vitro [2] = format: cell-based; details: human
Experimental: A549 human pulmonary epithelial cells (KCLB 10185), human embryonic kidney (HEK) 293 cells (KCLB 21573), human THP-1 leukemia cells (KCLB 40202), human neuroblastoma SH-SY5Y cells (KCLB 22266), Murine Raw 264.7 macrophages (KCLB 40071), and L929 murine fibroblasts (KCLB 10001) were purchased from the KCLB (Seoul, Korea). Cytotoxicity testing was performed using the MTT assay and the WST-1 cell viability assay as previously described.

[3] = test system: clinically isolated MDR, XDR, and TDR M. tuberculosis strains; experiment: microbe, parasite or virus in culture; format: cell-based; details: Mycobacterium tuberculosis
in vitro [4] = format: cell-based, murine; details: mouse
Method in brief: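 MTT and WST-1 viability read-outs; cytotoxicity testing per earlier published protocols.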

M. smegmatis = experiment: microbe, parasite or virus in culture; format: cell-based, Mycobacterium smegmatis; details: Mycolicibacterium smegmatis
M. xenopi = experiment: microbe, parasite or virus in culture; format: cell-based; details: Mycobacterium xenopi

With `CO[C@H]1/C=C/O[C@@]2(C)Oc3c(C)c(O)c4c(O)c(c(/C=N/N5CCN(C)CC5)c(O)c4c3C2=O)NC(=O)/C(C)=C\C=C\[C@H](C)[C@H](O)[C@@H](C)[C@@H](O)[C@@H](C)[C@H](OC(C)=O)[C@@H]1C` [RIF, rifampicin, reference compound] the “CFU (log)” value [1] was 4.63 and 4.77, the “CFU (replicates1-3), single values” [1] was 56400 CFU and 14000 CFU and 26700 CFU and 25200 CFU and 51000 CFU and 59000 CFU and 55000 CFU and 48000 CFU and 53000 CFU and 44900 CFU and 67000 CFU (2×) and 75100 CFU and 66500 CFU and 63000 CFU and 65000 CFU and 35000 CFU and 41000 CFU and the “log reduction (CFU)” value ([1]; at 12.5 μg/ml, 7 days) was 0.6. For the same molecule, the MIC (M. conceptionense) was 25 µg/mL (≈ 30.4 µM), the MIC (M. kansasii) was < 0.1 µg/mL and the “beta set-significance analysis, pair-wise comparison of gut microbiome” value (intestinal microbiome) was “significant”. For the same molecule, the “difference in phylum or class level taxa compared to drug-free group” value (intestinal microbiome) was “significant differences”, the “phylogenetic diversity compared to drug-free control group” value (intestinal microbiome) was “significantly decreased” and the MIC (M. aubagnense) was 1.6 µg/mL (≈ 1.94 µM). For the same molecule, the MIC (M. gilvum) was 0.2 µg/mL (≈ 0.243 µM), the MIC (M. kyorinense) was 50 µg/mL (≈ 60.8 µM) and the MIC (M. peregrinum) was 25 µg/mL (≈ 30.4 µM). The MIC (M. heraklionease) was 0.2 µg/mL (≈ 0.243 µM), the MIC (M. marinum) was < 0.1 µg/mL and the MIC (M. bovis) was 0.1 µg/mL (≈ 0.122 µM). For the same molecule, the MIC (M. massiliense) was 0.2 µg/mL (≈ 0.243 µM), the MIC (M. marseiliense) was > 100 µg/mL and the MIC (M. fortuitum) was 0.2 µg/mL (≈ 0.243 µM). For the same molecule, the CC50 (in vitro [2]; A549) was > 500 µg/mL, the CC50 (in vitro [2]; HEK-293) was > 500 µg/mL and the CC50 (in vitro [2]; SH-SY5Y) was > 500 µg/mL. For the same molecule, the CC50 (in vitro [2]; THP-1) was > 500 µg/mL, the MIC ([3]; TDR-1) was > 100 µg/mL and the MIC ([3]; TDR-2) was > 100 µg/mL. The MIC ([3]; TDR-3) was > 100 µg/mL, the CC50 (in vitro [4]; L929) was > 500 µg/mL and the CC50 (in vitro [4]; Raw264.7) was > 500 µg/mL. It also gave an MIC (M. smegmatis) of 25 µg/mL (≈ 30.4 µM) and an MIC (M. xenopi) of 0.2 µg/mL (≈ 0.243 µM).
